{"source": "patent US12357723B2", "about": "“Antimicrobial silver iodate” (Innovotech, Inc., priority 2012, dated 2025)", "key": {"[1]": {"experiment": "Ag5IO6 stability in solvents (isothermal TAM III heat flow, XRD)", "assay_type": "physicochemical", "method": "The purpose of this study was to determine whether or not Ag5IO6 interacts with methanol, tetrahydrofuran, acetone, and acetonitrile. […] of Ag5IO6 was placed in a vial, 2 mL of the solvent was added, and the vial was placed in a TAM III for an isothermal run at room temperature for >24 h with solvent only as the reference. The heat flow was measured. After the run was complete, the solvents were allowed to flash off and the solids collected were submitted to XRD. Samples exposed following essentially the same method for only 18 h were also submitted for XRD"}, "[2]": {"details": "for Grain size: 90° C."}, "[3]": {"experiment": "Ag5IO6 solubility in water and saline, OECD Method (105) flask", "assay_type": "physicochemical", "text": "The purpose of this study was to develop a basic understanding of the solubility (and stability) of Ag5IO6 in pure water and 0.9% (physiological saline), following OECD Method (105)—flask."}, "[4]": {"experiment": "Basic compatibility of Ag5IO6 with gels (visual, pH, UV-Vis, XRD)", "assay_type": "physicochemical", "text": "The purpose of this study was to determine whether Ag5IO6 could be incorporated into various gels without reacting with the gels. Ag5IO6 powder was combined with various commercially available hydrogels and then visually examined for stability, along with UV-Vis analysis and x-ray diffraction.\nGels selected: Guardian Laboratories AquaThik™ (Xanthan gum, PEG-180; 3% in water); Lubrajel® RC (Water, glycerin, propylene glycol, polyacrylic acid, sodium polyacrylate, 0.18% methylparaben, 0.02% propylparaben), and Lubrajel® PF (Glycerin, glyceryl acrylate/acrylic acid copolymer); SteriLub™ (unknown composition); BASF Pluronic® F127+Carbowax 600 (Polyoxyethylene-polyoxypropylene block copolymer; 18% Pluronic, 15% Carbowax 600); ConvaTec DuoDerm® Hydroactive® Sterile Gel (pectin, sodium carboxymethylcellulose); MoInlycke Normlgel® (0.9% NaCl, H2O, xanthan gum); Smith & Nephew IntraSite Gel (Water>60%, propylene glycol 10-30%, absorbent polymer<10%-crilanomer, a Graft-T starch copolymer) and SoloSite Gel (Water>60%, glycerol 10-30%, absorbent polymer<10%, allantoin<1%, antiseptic/preservative<1%); carboxymethylcellulose gel (4% in water); Cremophor; and Gelrite (0.4% in water).\nFor each gel, the samples were mixed in a small glass container with fine Ag5IO6 powder to generate 500 ppm Ag5IO6 in the gels. Each of the above formulations were examined for visual signs of instability, such as dramatic viscosity changes, color changes, release of gas, deposition of precipitate that appears different from the original Ag5IO6, and temperature change during stirring (heat release).\nUV-Vis Analysis: Samples were diluted to 1/10th their original concentration. For UV-Vis blanks, control gels (with no Ag5IO6) were prepared as described for each gel, and diluted to 1/10th as well. UV-Vis measurements were performed between 190-500 nm.\npHs of the gel formulations were measured with and without the Ag5IO6 added using pH indicator strips."}}, "note": "Like-named read-outs stand apart in the source and are kept apart here."}
{"smiles": "[Ag+].[Ag+].[Ag+].[Ag+].[Ag+].[O-][I+]([O-])([O-])([O-])([O-])[O-]", "note": "[Ag5IO6, pentasilver hexaoxoiodate]", "values": [{"measurement": "Rank of solubility in organic solvents", "setting": "[1]", "value": "methanol>>THF>acetone>acetonitrile"}, {"measurement": "Onset of significant reaction", "setting": "[1]; acetonitrile (slower onset), room temperature", "value": "about 56 h"}, {"measurement": "Time blended without substantial reaction", "setting": "[1]; all solvents (methanol, tetrahydrofuran, acetone, acetonitrile), room temperature", "value": "< 18", "unit": "h"}, {"measurement": "Onset of significant reaction", "setting": "[1]; methanol, room temperature", "value": "about 33 h"}, {"measurement": "Onset of significant reaction", "setting": "[1]; solvent printed as THE, room temperature", "value": "about 56 h"}, {"measurement": "Grain size", "setting": "[2]; Day 0", "value": 14, "unit": "Å"}, {"measurement": "Grain size", "setting": "[2]; Day 14", "value": 62, "unit": "Å"}, {"measurement": "Grain size", "setting": "[2]; Day 28", "value": 94, "unit": "Å"}, {"measurement": "Composition remaining Ag5IO6", "setting": "[2]; 672 h", "value": 100, "unit": "%"}, {"measurement": "Shelf life", "setting": "[2]; room temperature, extrapolated from accelerated storage", "value": "> 2", "unit": "years"}, {"measurement": "Solubility", "setting": "[3]; ddH2O", "value": "24.41 ± 0.87", "unit": "µg/mL"}, {"measurement": "pH of solution", "setting": "[3]; in ddH2O", "value": 8}, {"measurement": "Solid material converted to Ag metal (XRD)", "setting": "[3]; in ddH2O, end of experiment", "value": 0.1, "unit": "%"}, {"measurement": "Solid material remaining as Ag5IO6 (XRD)", "setting": "[3]; in ddH2O, end of experiment", "value": "approximately 99.9%"}, {"measurement": "pH of solution", "setting": "[3]; in saline", "value": 10}, {"measurement": "Solid material converted to AgCl (XRD)", "setting": "[3]; in saline, end of experiment", "value": "approximately 25%"}, {"measurement": "Solubility", "setting": "[3]; saline (0.9%)", "value": "0.61 ± 0.05", "unit": "µg/mL"}, {"measurement": "Ag5IO6 purity by XRD after mixing into gel", "setting": "[4]; 500 ppm Ag5IO6 in AquaThik gel", "value": 100, "unit": "%"}, {"measurement": "XRD: reaction of Ag5IO6 with gel", "setting": "[4]; 500 ppm Ag5IO6 in Cremophor gel", "value": "no Ag5IO6 detected by the XRD analysis"}, {"measurement": "XRD: reaction of Ag5IO6 with gel", "setting": "[4]; 500 ppm Ag5IO6 in DuoDerm hydrogel", "value": "remained pure"}, {"measurement": "XRD: reaction of Ag5IO6 with gel", "setting": "[4]; 500 ppm Ag5IO6 in Gelrite (0.4% in water)", "value": "did not react"}, {"measurement": "XRD: reaction of Ag5IO6 with gel", "setting": "[4]; 500 ppm Ag5IO6 in IntraSite gel", "value": "no reaction products"}, {"measurement": "XRD: reaction of Ag5IO6 with gel", "setting": "[4]; 500 ppm Ag5IO6 in Lubrajel PF", "value": "had not reacted"}, {"measurement": "XRD: reaction of Ag5IO6 with gel", "setting": "[4]; 500 ppm Ag5IO6 in Lubrajel RC", "value": "did not react"}, {"measurement": "XRD: reaction of Ag5IO6 with gel", "setting": "[4]; 500 ppm Ag5IO6 in Normlgel (0.9% NaCl), AgCl found", "value": "incompatible under these conditions with this gel for long term storage"}, {"measurement": "Visual signs of instability after addition of Ag5IO6", "setting": "[4]; 500 ppm Ag5IO6 in Pluronic F127 plus Carbowax 600, no XRD", "value": "undesirable physical changes in the gel"}, {"measurement": "XRD: reaction of Ag5IO6 with gel", "setting": "[4]; 500 ppm Ag5IO6 in SoloSite gel", "value": "no reaction products"}, {"measurement": "Ag5IO6 purity by XRD after mixing into gel", "setting": "[4]; 500 ppm Ag5IO6 in SteriLub gel", "value": 100, "unit": "%"}, {"measurement": "XRD: reaction of Ag5IO6 with gel", "setting": "[4]; 500 ppm Ag5IO6 in carboxymethylcellulose gel (4% in water)", "value": "not reactive"}]}
